Measurements as given in patent publication US11345666B2, “Phenyl and pyridinyl substituted imidazoles as modulators of RORγT” (Janssen Pharmaceutica NV, priority 2018, dated 2022).

Assays:
[1] = target: human RORγt ligand binding domain (RORγt LBD) (Homo sapiens (Human), UniProt P51449); test: RORγt ThermoFluor assay
From the text: ThermoFluor® is a fluorescence based assay that estimates ligand binding affinities by measuring the effect of a ligand on protein thermal stability (Pantoliano, M. W., Petrella, E. C., Kwasnoski, J. D., Lobanov, V. S., Myslik, J., Graf, E., Carver, T., Asel, E., Springer, B. A., Lane, P., and Salemme, F. R. (2001) High-density miniaturized thermal shift assays as a general strategy for drug discovery. J Biomol Screen 6, 429-40, and Matulis, D., Kranz, J. K., Salemme, F. R., and Todd, M. J. (2005) Thermodynamic stability of carbonic anhydrase: measurements of binding affinity and stoichiometry using ThermoFluor. Biochemistry 44, 5258-66). This approach is applicable to a wide variety of systems, and rigorous in theoretical interpretation through quantitation of equilibrium binding constants (KD).
The shift in the melting point described as a ΔTm is proportional to the concentration and affinity of the ligand.
RORγt ThermoFluor® Assay Construct
Nucleotides 850-1635 (SEQ ID NO:2) coding for the wild type human RORγt ligand binding domain (RORγt LBD) were cloned into the pHIS 1 vector, a modified pET E. coli expression vector (Accelagen, San Diego), containing an in-frame N-terminal His-tag and a TurboTEV protease cleavage site (ENLYFQG, SEQ ID NO:3) upstream of the cloned insert sequence. The amino acid sequence for the RORγt construct used in the Thermofluor® assay is shown as SEQ ID NO:4.
ThermoFluor® experiments were carried out using instruments owned by Janssen Research and Development, L.L.C. through its acquisition of 3-Dimensional Pharmaceuticals, Inc. 1,8-ANS (Invitrogen) was used as a fluorescent dye. Protein and compound solutions are dispensed into black 384-well polypropylene PCR microplates (Abgene) and overlayed with silicone oil (1 μL, Fluka, type DC 200) to prevent evaporation.
Bar-coded assay plates are robotically loaded onto a thermostatically controlled PCR-type thermal block and then heated at a typical ramp-rate of 1° C./min for all experiments. Fluorescence was measured by continuous illumination with UV light (Hamamatsu LC6) supplied via fiber optic and filtered through a band-pass filter (380-400 nm; >6 OD cutoff). Fluorescence emission of the entire 384-well plate was detected by measuring light intensity using a CCD camera (Sensys, Roper Scientific) filtered to detect 500±25 nm, resulting in simultaneous and independent readings of all 384 wells. Images were collected at each temperature, and the sum of the pixel intensity in a given area of the assay plate was recorded versus temperature. Reference wells contained RORγt without compounds, and the assay conditions were as follows: • 0.065 mg/mL RORγt • 60 μM 1,8-ANS • 100 mM Hepes, pH 7.0 • 10 mM NaCl • 2.5 mM GSH • 0.002% Tween-20
Project compounds were arranged in a pre-dosed mother plate (Greiner Bio-one) wherein compounds are serially diluted in 100% DMSO by 1:2 from a high concentration of 10 mM over 12 columns within a series (column 12 is a reference well containing DMSO, no compound). The compounds were robotically dispensed directly into assay plates (1×=46 nL) using a Hummingbird capillary liquid handling instrument (Digilab). Following compound dispense, protein and dye in buffer was added to achieve the final assay volume of 3 μL, followed by 1 μL of silicone oil.
The binding affinity was estimated as described previously (Matulis, D., Kranz, J. K., Salemme, F. R., and Todd, M. J. (2005) Thermodynamic stability of carbonic anhydrase: measurements of binding affinity and stoichiometry using ThermoFluor®. Biochemistry 44, 5258-66) using the following thermodynamic parameters of protein unfolding: […]

[2] = target: full-length human RORγt (Homo sapiens (Human), UniProt P51449); test: RORγt (full-length human) reporter assay, conditions A or B; format: cell-based; conditions: for inhibition at 3 µM: 3 μM compound concentration (*); for IC50: HEK293T cells, read-out: RORγt (FL) Reporter Assay A or B, IC50; for inhibition at 6 µM: read-out: RORγt (FL) Reporter Assay A or B, % inhibition @ 6 μM, 6 μM compound concentration
Sequence of full-length human RORγt (P51449 other isoform, or with tags, fused parts or gaps): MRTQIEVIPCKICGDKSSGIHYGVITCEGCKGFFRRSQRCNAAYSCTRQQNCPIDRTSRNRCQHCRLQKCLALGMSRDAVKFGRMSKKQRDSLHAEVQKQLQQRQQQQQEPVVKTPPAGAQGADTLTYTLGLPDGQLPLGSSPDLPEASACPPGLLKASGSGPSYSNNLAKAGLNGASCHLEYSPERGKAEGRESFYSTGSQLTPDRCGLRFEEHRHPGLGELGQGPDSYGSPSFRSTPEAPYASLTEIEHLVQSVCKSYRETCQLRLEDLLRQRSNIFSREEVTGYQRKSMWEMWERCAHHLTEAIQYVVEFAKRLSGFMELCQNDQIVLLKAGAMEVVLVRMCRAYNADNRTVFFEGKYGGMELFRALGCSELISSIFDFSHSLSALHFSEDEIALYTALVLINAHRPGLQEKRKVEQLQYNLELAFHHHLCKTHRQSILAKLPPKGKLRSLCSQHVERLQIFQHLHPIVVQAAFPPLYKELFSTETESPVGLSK
From the text: RORγt (Full-Length Human) Reporter Assay:
Cells used in this assay were transiently co-transfected with three different plasmids, one expressing the GAL4-DNA binding domain (DBD)-RORγt fusion protein under control of a CMV promoter (NH2-Gal4-DBD:RORC—COOH in pCMV-BD, Stratagene #211342), and two reporter plasmids—the firefly luciferase reporter under control of a GAL4 promoter (pFR-Luc 2×GAL4) and Renilla luciferase reporter under control of CMV promoter (pRL-CMV, Promega #E2261). […] HEK293T cells were plated at 35,000 per well in 96-well plate in medium of DMEM with 10% FBS. After 18-22 hours incubation, the transfection was carried out by using a PEI solution with 170.5 ng total DNA/well (50 ng pCMV-BD-ROR plus 20 ng of pFR-Luc reporter and 0.5 ng of pRL-CMV reporter plus 100 ng Carrier DNA (Clontech #630440) for each well). 4-6 hours after transfection, cells were treated with compounds for overnight in the medium with final concentration of FBS 1.3% and DMSO 0.1%. After overnight (16 to 20 hours) incubation, media were removed and cells were lysed with […] Glo Lysis Buffer (Promega) for 10-15 minutes followed by 10 minute incubation with 50 μL Dual Glo reagent (Promega) at room temperature. Firefly luciferase luminescence was measured using a BMG Pherastar plate reader. To each well, 50 μL Stop and Glo reagent was added and incubated for 10 minutes at room temperature. Renilla luminescence was measured using a BMG Pherastar plate reader. To calculate the effect of compounds on RORγt activity, firefly values were normalized against values of DMSO only and values of reference compound at saturating concentration, then further normalized against Renilla signals. IC50s were generated by plotting final Renilla normalized data against compound concentration and percent inhibition was calculated against DMSO control.
Cells used in this assay were transiently co-transfected with three different plasmids, one expressing the GAL4-DNA binding domain (DBD)-RORγt fusion protein under control of a CMV promoter (NH2-Gal4-DBD:RORC—COOH in pCMV-BD, Stratagene #211342), and two reporter plasmids—the firefly luciferase reporter under control of a GAL4 promoter (pFR-Luc 2×GAL4) and Renilla luciferase reporter under control of CMV promoter (pRL-CMV, Promega #E2261). […] HEK293T cells were plated at 8750 cells per well in 384-well plate in medium of DMEM with 10% FBS. After 18-22 hours incubation, the transfection was carried out by using a PEI solution with 42.6 ng total DNA/well (12.5 ng pCMV-BD-ROR plus 5 ng of pFR-Luc reporter and 0.125 ng of pRL-CMV reporter plus 25 ng Carrier DNA (Clontech #630440) for each well). 4-6 hours after transfection, cells were treated with compounds for overnight in the medium with final concentration of FBS 1.3% and DMSO 0.1%. After overnight (16 to 20 hours) incubation, media were removed and cells were lysed with 20 μL Glo Lysis Buffer (Promega) for 10-15 minutes followed by 10 minute incubation with 20 μL Dual Glo reagent (Promega) at room temperature. Firefly luciferase luminescence was measured using a BMG Pherastar plate reader. To each well, 20 μL Stop and Glo reagent was added and incubated for 10 minutes at room temperature. Renilla luminescence was measured using a BMG Pherastar plate reader. To calculate the effect of compounds on RORγt activity, firefly values were normalized against values of DMSO only and values of reference compound at saturating concentration, then further normalized against Renilla signals. IC50s were generated by plotting final Renilla normalized data against compound concentration and percent inhibition was calculated against DMSO control.

[3] = read-out: RORγt (FL) Reporter Assay A or B, % inhibition

Sequence of human RORγt ligand binding domain (RORγt LBD) (P51449 other isoform, or with tags, fused parts or gaps): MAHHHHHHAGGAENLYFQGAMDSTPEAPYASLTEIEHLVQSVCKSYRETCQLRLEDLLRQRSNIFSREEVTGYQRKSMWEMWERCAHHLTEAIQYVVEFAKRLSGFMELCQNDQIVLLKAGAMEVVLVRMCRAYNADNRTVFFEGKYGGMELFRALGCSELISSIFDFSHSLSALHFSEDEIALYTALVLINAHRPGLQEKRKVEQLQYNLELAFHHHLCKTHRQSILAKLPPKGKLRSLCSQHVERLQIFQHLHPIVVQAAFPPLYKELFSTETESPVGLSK

SMILES | IC50 [2] [nM] | inhibition at 6 µM [2] [%] | also measured
CCc1nc(C(=O)NC[C@H]2CC[C@H](S(C)(=O)=O)CC2)c(Cl)n1-c1ncc(CCCC(F)(F)F)cc1OC(F)F [Example 48, 5-Chloro-1-(3-(difluoromethoxy)-5-(4,4,4-trifluorobutyl)pyridin-2-yl)-2-ethyl-N-(((1r,4r)-4-(methylsulfonyl)cyclohexyl)methyl)-1H-imidazole-4-carboxamide] | 50 | 104 | –
CCc1nc(C(=O)NC[C@H]2CC[C@H](S(C)(=O)=O)CC2)c(Cl)n1-c1ccc(CC(C)(C)C(F)(F)F)c(F)c1 [Example 103, 5-Chloro-2-ethyl-1-(3-fluoro-4-(3,3,3-trifluoro-2,2-dimethylpropyl)phenyl)-N-(((1r,4r)-4-(methylsulfonyl)cyclohexyl)methyl)-1H-imidazole-4-carboxamide] | – | – | Kd [1]: 4.4 nM
CCc1nc(C(=O)NC[C@]2(O)CC[C@@H](S(C)(=O)=O)CC2)c(Cl)n1-c1ncc(CCCC(F)(F)F)cc1OC(F)F [Example 47, 5-Chloro-1-(3-(difluoromethoxy)-5-(4,4,4-trifluorobutyl)pyridin-2-yl)-2-ethyl-N-(((1s,4s)-1-hydroxy-4-(methylsulfonyl)cyclohexyl)methyl)-1H-imidazole-4-carboxamide] | 340 | 98 | –
CCc1nc(C(=O)NC[C@]2(O)CC[C@@H](S(C)(=O)=O)CC2)c(Cl)n1-c1ccc(CC(C)(C)C(F)(F)F)c(F)c1 [Example 104, 5-Chloro-2-ethyl-1-(3-fluoro-4-(3,3,3-trifluoro-2,2-dimethylpropyl)phenyl)-N-(((1s,4s)-1-hydroxy-4-(methylsulfonyl)cyclohexyl)methyl)-1H-imidazole-4-carboxamide] | – | – | Kd [1]: 5.4 nM
CCc1nc(C(=O)NC[C@]2(O)CC[C@@H](S(C)(=O)=O)CC2)c(C)n1-c1ncc(CC(C)(C)C(F)(F)F)cc1OC(F)F [Example 50, 1-(3-(Difluoromethoxy)-5-(3,3,3-trifluoro-2,2-dimethylpropyl)pyridin-2-yl)-2-ethyl-N-(((1s,4s)-1-hydroxy-4-(methylsulfonyl)cyclohexyl)methyl)-5-methyl-1H-imidazole-4-carboxamide] | 120 | 90 | –
CCc1nc(C(=O)NC[C@]2(O)CC[C@@H](S(C)(=O)=O)CC2)c(Cl)n1-c1ncc(CC(C)(C)CC(F)(F)F)cc1OC(F)F [Example 107, 5-Chloro-1-(3-(difluoromethoxy)-5-(4,4,4-trifluoro-2,2-dimethylbutyl)pyridin-2-yl)-2-ethyl-N-(((1s,4s)-1-hydroxy-4-(methylsulfonyl)cyclohexyl)methyl)-1H-imidazole-4-carboxamide] | – | – | inhibition at 3 µM [2, 3]: 85%
CCc1nc(C(=O)NC[C@H]2CC[C@H](S(C)(=O)=O)CC2)c(C)n1-c1ccc(CC(C)C(F)(F)F)cc1OC (single isomer, unassigned) [Example 8] | 160 | – | inhibition at 0.67 µM ([2]; read-out: RORγt (FL) Reporter Assay A or B, % inhibition, 0.67 μM compound concentration (****)): 66%

Continued, in another order:

IC50 [2] [nM] | inhibition at 6 µM [2] [%] | SMILES | also measured
11 | – | Cc1nc(C(=O)NC[C@H]2CC[C@H](S(C)(=O)=O)CC2)c(C#N)n1-c1ccc(CC(C)(C)C(F)(F)F)cc1OC(F)F [Example 53, 5-Cyano-1-(2-(difluoromethoxy)-4-(3,3,3-trifluoro-2,2-dimethylpropyl)phenyl)-2-methyl-N-(((1r,4r)-4-(methylsulfonyl)cyclohexyl)methyl)-1H-imidazole-4-carboxamide] | Kd [1]: 2.5 nM; inhibition at 3 µM [2, 3]: 84%
– | 78 | CCc1nc(C(=O)NC[C@]2(O)CC[C@@H](S(C)(=O)=O)CC2)c(C)n1-c1ncc(CCCC(F)(F)F)cc1OC(F)F [Example 52, 1-(3-(Difluoromethoxy)-5-(4,4,4-trifluorobutyl)pyridin-2-yl)-2-ethyl-N-(((1s,4s)-1-hydroxy-4-(methylsulfonyl)cyclohexyl)methyl)-5-methyl-1H-imidazole-4-carboxamide] | –
53 | – | CCc1nc(C(=O)NC[C@]2(O)CC[C@@H](S(C)(=O)=O)CC2)c(Cl)n1-c1ccc(CC(C(F)(F)F)C(F)(F)F)c(F)c1 [Example 105, 5-Chloro-2-ethyl-1-(3-fluoro-4-(3,3,3-trifluoro-2-(trifluoromethyl)propyl)phenyl)-N-(((1s,4s)-1-hydroxy-4-(methylsulfonyl)cyclohexyl)methyl)-1H-imidazole-4-carboxamide] | inhibition at 0.22 µM ([2]; 0.22 μM compound concentration (******), read-out: RORγt (FL) Reporter Assay A or B, % inhibition): 80%
2400 | 54 | CCc1nc(C(=O)NC[C@]2(O)CC[C@@H](S(C)(=O)=O)CC2)c(C#N)n1-c1cnc(CCC(F)(F)F)cc1OC [Example 118, 5-Cyano-2-ethyl-N-(((1s,4s)-1-hydroxy-4-(methylsulfonyl)cyclohexyl)methyl)-1-(4-methoxy-6-(3,3,3-trifluoropropyl)pyridin-3-yl)-1H-imidazole-4-carboxamide] | –
